According to patent US12486218B2, “Compounds advantageous in the treatment of central nervous system diseases and disorders” (AurimMed Pharma, Inc., priority 2008, dated 2025):

Assays:
mice [1] = assay: Minimal motor impairment (MID50), mice i.p.; details: mice, i.p.
Protocol: (§2) The animal testing was performed according to methods known in the relevant art.

CYP-450 2D6 = CYP-450 2D6 (Homo sapiens, UniProt P10635); assay: In vitro human CYP-450 study, 2D6; type: in vitro ADME; details: human enzyme
From the text: (§1) On the other hand, it is an inhibitor for 2C19, 2D6, 2A6 and 2C9.

rats [2] = assay: Pilocarpine-induced Status Epilepticus in Rats (prevention; intervention @ 30 min)
Protocol: The animal testing was performed using the protocols developed in the Anticonvulsant Screening Program (ASP) at the National Institute of Neurological Disorders and Stroke (NINDS), National Institutes of Health (NIH).

CYP-450 2B6 = CYP-450 2B6 (Homo sapiens, UniProt P20813); assay: In vitro human CYP-450 study, 2B6; type: in vitro ADME; details: human enzyme
From the text: as §1

mice [3] = assay: Mouse formalin pain model; type: in vivo; details: 76 mg/kg i.p., at 0.5 hours
[4] = system: CYP2C19, CYP2D6, CYP2A6, CYP2C9; assay: In vitro human CYP-450 study, Ki values over the enzymes; type: in vitro ADME; details: range over the enzymes, not assigned to single isoforms
From the text: as §1

in vivo = details: mouse, ip
Protocol: as §2

mice [5] = assay: Maximal Electroshock Seizure (MES) test, mice i.p.; type: in vivo; details: Mus musculus, ip
[6] = system: type II SMA fibroblasts (GM03813); assay: SMN protein localization, gem counting in type II SMA fibroblasts; type: cell-based; details: 100 nM-10 μM, 5 days
Protocol: To validate the SMN2 promoter and exon 7 screens, the effects of compounds H, H (acid form), AY, F, BX, and BY were evaluated on the basis of expression and localization of SMN protein in type II SMA fibroblasts (GM03813). In a normal cell, SMN protein localized within the nucleus to discreet foci known as gems. In SMN-deficient SMA cells, the number of gems is greatly diminished. Although the function of gems is unknown, it is believed that they are somehow involved in the snRNP assembly function of SMN. Gem counting can, therefore, be considered an assay for SMN function.
GM03813 fibroblasts were treated with different doses (100 nM-10 μM) of compounds H, H (acid form), AY, F, BX, and BY for 5 days. SMN immunostaining was then completed on these cells and the number of gems was counted in 100 randomly-selected nuclei. […] In fact, the gem counts at the highest dose of compound H approach those observed for carrier fibroblasts (GM03814). When compared against treatment with 1 μM D157495—a D156844 derivative, all of the compounds tested performed as well as or, even better than D157495.

rats [7] = assay: Minimal motor impairment (MID50), rats p.o.; type: in vivo
CYP-450 1A2 = CYP-450 1A2 (Homo sapiens, UniProt P05177); assay: In vitro human CYP-450 study, 1A2; type: in vitro ADME; details: human enzyme
From the text: as §1

mice [8] = assay: Audiogenic Seizure susceptible (AGS) test, mice i.p.; type: in vivo; details: Mus musculus, ip
mice [9] = assay: Subcutaneous Metrazol Seizure threshold (s.c. MET) test, mice i.p.; type: in vivo; details: Mus musculus
[10] = system: rat dopaminergic N27 cells; assay: N27 protection assay against oxidative stress (H2O2 or MPP+; MTT and LDH); type: cell-based; details: drug 24 hours before 200 μM H2O2 or 640 μM MPP+
Method in brief: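 Protection mode: N27 cells pretreated with drug at various concentrations for 24 hours, then exposed to 200 μM H2O2 or 640 μM MPP+. Recovery mode: cells damaged by H2O2 first, drug applied afterwards. Viability measured by MTT reduction and cytotoxicity by released LDH.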

Drosophila = assay: Rotenone-induced toxicity, Drosophila model of sporadic Parkinson's disease; type: in vivo
From the text: FIGS. 26A-26C illustrate the effect of compound BX in another Parkinson's disease model. Chronic infusion of rotenone to fruit flies reproduces many features of Parkinson disease. Rotenone is a pesticide that inhibits mitochondrial complex I activity, thus creating an environment of oxidative stress in the cell. Many studies have employed rotenone to generate an experimental animal model of Parkinson's disease (PD) that mimics and elicits PD-like symptoms, such as motor and cognitive decline. […] Compound BX therefore protects Drosophila from the neurotoxic effects of rotenone and may prevent oxidative stress in dopaminergic neurons.

hippocampal neurons = assay: Hippocampal cell loss after pilocarpine-induced SE (FluoroJade B); type: in vivo; details: given 30 minutes after the first stage 3 convulsive seizure
From the text: Pilocarpine-induced SE results in marked cell loss in the hippocampus, when compared to the naïve vehicle-treated rats, as evidenced by increased FluoroJade B fluorescence in the dentate gyrus (DG), CA1, and CA3 cell layers.

[11] = Rattus norvegicus, 0.5 h, read-out: Intervention @ 30 min, Protection
[12] = Rattus norvegicus, read-out: Prevention, Protection

CYP-450 2D6, sequence (P10635 whole entry): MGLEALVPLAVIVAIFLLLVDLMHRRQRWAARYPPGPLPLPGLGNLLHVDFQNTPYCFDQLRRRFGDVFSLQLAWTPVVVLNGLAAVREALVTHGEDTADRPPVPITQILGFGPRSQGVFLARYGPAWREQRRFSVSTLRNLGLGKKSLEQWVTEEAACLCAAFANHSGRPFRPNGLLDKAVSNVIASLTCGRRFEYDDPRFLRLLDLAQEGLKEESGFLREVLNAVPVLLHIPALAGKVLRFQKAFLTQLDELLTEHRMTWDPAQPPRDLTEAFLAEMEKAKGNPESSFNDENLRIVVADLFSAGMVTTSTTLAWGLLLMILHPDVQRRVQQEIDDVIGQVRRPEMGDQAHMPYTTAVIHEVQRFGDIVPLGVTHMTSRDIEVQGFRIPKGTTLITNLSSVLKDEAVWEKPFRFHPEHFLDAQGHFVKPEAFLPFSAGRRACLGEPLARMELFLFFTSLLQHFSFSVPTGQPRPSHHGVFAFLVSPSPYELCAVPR
CYP-450 2B6, sequence (P20813 whole entry): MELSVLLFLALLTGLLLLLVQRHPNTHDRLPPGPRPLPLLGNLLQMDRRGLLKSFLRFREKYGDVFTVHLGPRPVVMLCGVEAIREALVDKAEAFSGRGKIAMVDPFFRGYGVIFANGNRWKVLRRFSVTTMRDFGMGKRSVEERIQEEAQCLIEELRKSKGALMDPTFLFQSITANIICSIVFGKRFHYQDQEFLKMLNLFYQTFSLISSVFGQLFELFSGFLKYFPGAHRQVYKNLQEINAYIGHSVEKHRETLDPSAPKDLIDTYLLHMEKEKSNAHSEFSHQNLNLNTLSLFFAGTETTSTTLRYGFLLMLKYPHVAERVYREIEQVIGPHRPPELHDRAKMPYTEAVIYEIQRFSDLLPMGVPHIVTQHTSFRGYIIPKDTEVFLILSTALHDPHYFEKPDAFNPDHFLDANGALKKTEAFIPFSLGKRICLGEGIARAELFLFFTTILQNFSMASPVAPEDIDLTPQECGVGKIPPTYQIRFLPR
CYP-450 1A2, sequence (P05177 whole entry): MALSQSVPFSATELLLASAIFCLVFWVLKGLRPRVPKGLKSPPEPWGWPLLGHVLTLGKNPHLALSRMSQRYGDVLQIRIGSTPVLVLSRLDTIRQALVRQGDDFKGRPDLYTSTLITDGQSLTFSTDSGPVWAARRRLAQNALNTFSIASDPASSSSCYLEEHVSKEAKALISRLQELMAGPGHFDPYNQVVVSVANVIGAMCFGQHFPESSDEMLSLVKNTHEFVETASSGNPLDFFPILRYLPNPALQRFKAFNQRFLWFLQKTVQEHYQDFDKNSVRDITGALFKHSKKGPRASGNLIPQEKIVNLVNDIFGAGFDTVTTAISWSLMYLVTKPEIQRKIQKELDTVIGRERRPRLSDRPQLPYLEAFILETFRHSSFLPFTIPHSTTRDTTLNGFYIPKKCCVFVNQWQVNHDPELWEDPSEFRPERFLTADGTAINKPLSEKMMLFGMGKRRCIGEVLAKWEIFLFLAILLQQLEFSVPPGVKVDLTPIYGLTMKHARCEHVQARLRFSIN

## CC(CC(N)=O)c1ccc(OC(F)(F)F)cc1 (racemic) [Compound H, 3-[4-(trifluoromethoxy)-phenyl]butyramide]
Mice [1]
  MID50 (median minimal motor impairment dose): 158.98 mg/kg
CYP-450 2D6
  inhibition of CYP-450 2D6: inhibitor
Rats [2]; [11]
  responders at 176 mg/kg: 97%
Rats [2]; [12]
  responders at 200 mg/kg: 86%
CYP-450 2B6
  inhibition of CYP-450 2B6: either no or only a remote possibility of inhibiting
Mice [3]
  pain response, acute phase: 63 % of the control
  pain response, inflammatory phase: 63 % of the control
[4]
  Ki: 29 to 174 µM
In vivo
  TD50: 159 mg/kg
Mice [5]; mice
  ED50: 76.1 mg/kg
Mice [5]; mice i.p., @ 0.5 hrs
  ED50: 76.1 mg/kg
[6]
  gem counts (SMN immunostaining, 100 nuclei): increase gem counts in a dose-dependent manner
  relative potency in increasing gem counts: most potent
Rats [7]
  MID50: >500 mg/kg
CYP-450 1A2
  inhibition of CYP-450 1A2: either no or only a remote possibility of inhibiting
Mice [8]; mice
  ED50: 22.5 mg/kg
Mice [8]; mice i.p., @ 0.5 hr
  ED50: 22.5 mg/kg
Mice [9]; mice i.p., @ 0.5 hrs
  ED50: 91.4 mg/kg
Mice [9]; mice, i.p.
  ED50: 91.4 mg/kg

## C[C@H](CC(N)=O)c1ccc(OC(F)(F)F)cc1 (single isomer, unassigned) [Compound BX, R-(−)-3-(4-Trifluoromethoxy-phenyl)butyramide]
Rats [2]; [11]
  responders at 155 mg/kg: 50%
Rats [2]; [12]
  responders at 100 mg/kg: 100%
Rats [2]; rats, 200 mg/kg, administered 30′ after the first stage 3 seizure
  effect on convulsive SE: halted the convulsive SE
Mice [3]
  pain response, acute phase: 84 % of the control
  pain response, inflammatory phase: 41 % of the control
[10]
  neuroprotective effect against H2O2 and MPP+ oxidative stresses (MTT and LDH assays): potent dose-dependent neuroprotective effects
In vivo
  TD50 at 0.25 hr: 104 mg/kg
Mice [5]; mice i.p., @ 1.0 hr
  ED50: 47.9 mg/kg
[6]
  gem counts (SMN immunostaining, 100 nuclei): increase gem counts in a dose-dependent manner
Drosophila; 500 μM rotenone
  survival of Drosophila exposed to rotenone: enhances survival
Drosophila; rotenone-treated Drosophila versus mock-treated controls
  locomotion speed in rotenone-treated flies: increases locomotion speed in rotenone-treated flies to a level virtually indistinguishable from mock-treated controls
Hippocampal neurons
  rats with partial neuroprotection (CA3 and hilar neurons of DG preserved): 2
Hippocampal neurons; rats
  animals with complete neuroprotection of hippocampal neurons against SE-induced cell death: 11/15
Mice [8]; mice i.p., @ 0.5 hr
  ED50: 16.5 mg/kg
Mice [9]; mice i.p., @ 1.0 hr
  ED50: 51.4 mg/kg
